Experimental data published in PubChem BioAssay (NCI).
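Each compound was tested at five concentrations against cells in 96-well plates for 48 hours. The concentration for full growth arrest is given as TGI.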

Legend:
Assay in all cases: DTP human tumour cell line panel, 48 h
[1] = test system: A498 renal
[2] = test system: A549 NSCLC
[3] = test system: CCRF-CEM leukemia
[4] = test system: COLO 205 colon
[5] = test system: EKVX NSCLC
[6] = test system: HCT-116 colon
[7] = test system: MALME-3M melanoma
[8] = test system: NCI-H460 lung
[9] = test system: NCI-H522 lung
[10] = test system: OVCAR-4 ovarian
[11] = test system: SF-295 CNS
[12] = test system: SK-OV-3 ovarian
[13] = test system: SN12C renal
[14] = test system: SNB-78 CNS
[15] = test system: SR leukemia
[16] = test system: UACC-62 melanoma
[17] = test system: HS 578T breast
[18] = test system: MDA-N
[19] = test system: NCI/ADR-RES ovarian
[20] = test system: PC-3 prostate

CCOC(=O)c1cc2c(nc1N)-c1ncccc1CC2
TGI [1]: > 100 µM
TGI [2]: > 100 µM
TGI [3]: > 100 µM
TGI [4]: 69.2 µM
TGI [5]: > 100 µM
TGI [6]: > 100 µM
TGI [7]: > 100 µM
TGI [8]: > 100 µM
TGI [9]: > 100 µM
TGI [10]: > 100 µM
TGI [11]: > 100 µM
TGI [12]: > 100 µM
TGI [13]: > 100 µM
TGI [14]: > 100 µM
TGI [15]: 57 µM
TGI [16]: > 100 µM

CC1(C)OC(C[C@]2(C#N)C[C@H](CCl)OC(C)(C)O2)C[C@@H](C[C@]2(C#N)C[C@H](CCl)OC(C)(C)O2)O1 (some centres undefined)
TGI [1]: > 100 µM
TGI [2]: > 100 µM
TGI [3]: > 100 µM
TGI [4]: > 100 µM
TGI [5]: > 100 µM
TGI [6]: > 100 µM
TGI [7]: > 100 µM
TGI [8]: > 100 µM
TGI [9]: > 100 µM
TGI [10]: > 100 µM
TGI [11]: > 100 µM
TGI [12]: > 100 µM
TGI [13]: > 100 µM
TGI [14]: > 100 µM
TGI [15]: > 100 µM
TGI [16]: > 100 µM

CC(Oc1ccc(OCC2CCCCC2)cc1)C(N)=O (centres undefined)
TGI [2]: > 100 µM
TGI [3]: > 100 µM
TGI [6]: > 100 µM
TGI [7]: > 100 µM
TGI [8]: > 100 µM
TGI [9]: > 100 µM
TGI [10]: > 100 µM
TGI [11]: > 100 µM
TGI [12]: > 100 µM
TGI [13]: > 100 µM
TGI [14]: > 100 µM
TGI [16]: > 100 µM

CC(O)C(N=Cc1nc(-c2ccccc2)oc1O)C(=O)O (centres undefined)
TGI [1]: > 100 µM
TGI [2]: > 100 µM
TGI [3]: > 100 µM
TGI [4]: > 100 µM
TGI [5]: > 100 µM
TGI [6]: > 100 µM
TGI [7]: > 100 µM
TGI [8]: > 100 µM
TGI [9]: > 100 µM
TGI [10]: > 100 µM
TGI [11]: > 100 µM
TGI [12]: > 100 µM
TGI [14]: > 100 µM
TGI [16]: > 100 µM

COc1ccc2c3c(n(Cc4ccccc4)c(=O)c2c1)-c1cc(OC)c(OC)cc1C3C (centres undefined)
TGI [1]: 97.8 µM
TGI [2]: > 100 µM
TGI [3]: > 100 µM
TGI [4]: > 100 µM
TGI [5]: 52.8 µM
TGI [6]: > 100 µM
TGI [7]: 57.6 µM
TGI [8]: 21.7 µM
TGI [9]: 47.8 µM
TGI [10]: 47.7 µM
TGI [11]: 31.4 µM
TGI [12]: > 80.4 µM
TGI [13]: > 100 µM
TGI [14]: > 100 µM
TGI [15]: > 100 µM
TGI [16]: 69.9 µM

O=C1CCCC/C1=C1\C(=O)Nc2cc(F)ccc21
TGI [1]: > 100 µM
TGI [2]: > 100 µM
TGI [3]: > 100 µM
TGI [4]: > 100 µM
TGI [5]: > 100 µM
TGI [6]: > 100 µM
TGI [7]: > 100 µM
TGI [8]: > 100 µM
TGI [9]: > 100 µM
TGI [10]: > 100 µM
TGI [11]: > 100 µM
TGI [12]: > 100 µM
TGI [13]: > 100 µM
TGI [14]: > 100 µM
TGI [16]: > 100 µM

CC1(C)CC(=O)C2=C(C1)S/C(=C1/SC3=C(S1)C(=O)CC(C)(C)C3)S2
TGI [1]: > 251 µM
TGI [2]: > 251 µM
TGI [3]: > 251 µM
TGI [4]: > 251 µM
TGI [5]: > 251 µM
TGI [6]: > 251 µM
TGI [7]: > 251 µM
TGI [8]: > 251 µM
TGI [9]: > 251 µM
TGI [11]: > 251 µM
TGI [12]: > 251 µM
TGI [13]: > 251 µM
TGI [14]: > 251 µM
TGI [15]: > 251 µM
TGI [16]: > 251 µM

Nc1c(-c2nc3ccccc3o2)sc(=S)n1-c1ccc(Cl)cc1
TGI [1]: 99.7 µM
TGI [2]: 39.2 µM
TGI [3]: > 100 µM
TGI [4]: > 100 µM
TGI [5]: > 100 µM
TGI [6]: 29.3 µM
TGI [17]: 46.4 µM
TGI [7]: 56.5 µM
TGI [18]: > 100 µM
TGI [8]: > 100 µM
TGI [9]: 49.7 µM
TGI [19]: 74.1 µM
TGI [10]: 31.6 µM
TGI [20]: 82.1 µM
TGI [11]: 27.3 µM
TGI [12]: 33.2 µM
TGI [13]: > 100 µM
TGI [15]: > 100 µM
TGI [16]: 27.8 µM

COc1cc(=O)n2c3ccccc3n(C)c2c1C#N
TGI [1]: > 100 µM
TGI [2]: > 100 µM
TGI [3]: > 100 µM
TGI [4]: > 100 µM
TGI [5]: > 100 µM
TGI [6]: > 100 µM
TGI [17]: > 100 µM
TGI [7]: > 100 µM
TGI [18]: > 100 µM
TGI [8]: > 100 µM
TGI [9]: > 100 µM
TGI [19]: > 100 µM
TGI [10]: > 100 µM
TGI [20]: > 100 µM
TGI [11]: > 100 µM
TGI [12]: > 100 µM
TGI [13]: > 100 µM
TGI [15]: > 100 µM
TGI [16]: > 100 µM

Cc1ccc(S(=O)(=O)/N=C(\N)N(C)N=O)cc1
TGI [1]: > 100 µM
TGI [2]: > 100 µM
TGI [3]: > 100 µM
TGI [4]: > 100 µM
TGI [5]: > 100 µM
TGI [6]: > 100 µM
TGI [17]: > 100 µM
TGI [7]: > 100 µM
TGI [18]: > 100 µM
TGI [8]: > 100 µM
TGI [9]: > 100 µM
TGI [19]: > 100 µM
TGI [10]: > 100 µM
TGI [20]: > 100 µM
TGI [11]: > 100 µM
TGI [12]: > 100 µM
TGI [13]: > 100 µM
TGI [15]: > 100 µM
TGI [16]: > 100 µM

CCCc1c[nH]c(-c2ccc(-c3cc(CCC)c(C=O)[nH]3)s2)c1
TGI [1]: 20.5 µM
TGI [2]: 17.6 µM
TGI [3]: 91.4 µM
TGI [6]: 31.9 µM
TGI [7]: 30 µM
TGI [8]: 16.9 µM
TGI [9]: 31.1 µM
TGI [10]: 35.2 µM
TGI [11]: 33.1 µM
TGI [12]: 32.8 µM
TGI [13]: 30.2 µM
TGI [14]: 37.2 µM
TGI [16]: 31.2 µM
